Reference: patent US6146615A, “Contrast agents for image enhancement in magnetic resonance imaging” (priority 1999, dated 2000)
“Also recorded” adds a separate entry of the source.

Key:
[1] = test system: implanted prostatic tumors (Dunning R3327, MAT/Lu); test: T1-weighted MRI of tumor-bearing rats: percentage enhancement of tumor; assay type: in vivo, rat (inbred Copenhagen, male)
From the text: (§1) A T1 -weighted MRI examination (SE 400/15; SISCO SIS 85, 2 T) of the iron complex of ligand XI, Fe-DESAC, in rats (inbred Copenhagen, male, ca. 250 g bw) with implanted prostatic tumors (Dunning R3327, MAT/Lu) in the thigh muscles has been performed.
Thus, differentiation of tumor from surrounding muscle was straightforward with both contrast agents.
(§2) A T1 -weighted MRI examination (SE 400/15; SISCO SIS 85, 2 T) of three of these new MR contrast agents, the Fe(III) complexes of ligands XI, XVII and XXII in rats (inbred Copenhagen, male, ca. 250 g bw) with implanted prostatic tumors (Dunning R3327, MAT/Lu) in the thigh muscles was performed.

Muscle = test: T1-weighted MRI of tumor-bearing rats: percentage enhancement of muscle; assay type: in vivo, rat (inbred Copenhagen, male); conditions: 100 μmol agent/kg bw iv, muscle line below large tumor
From the text: as §1, §2

mice = conditions: metal chloride salts in aqueous solution, mice i.p.; cited from earlier work
liver and kidney [2] = conditions: over the same time period as FIG. 1; Davies et al. 1996, U.S. Pat. No. 5,494,656; cited from earlier work
liver and kidney [3] = test: MR imaging experiments on healthy rats: percent enhancement of liver and kidney; assay type: in vivo, rat (female Fischer 344); conditions: 0.10 mmol/kg, tail vein, FIG. 1
Description: Animal studies were performed with a 1.5-T superconducting MR unit (Signa. GE Medical Systems) using a send-and-receive head coil containing two anesthetized female Fischer 344 rats. After a localizer image were obtained, a spin-echo pulse sequence were used with a 256×256 matrix (three signals acquired) over a 20-cm field of view with a thickness of 3 mm and a 1.5-mm intersection gap. The pulse sequence parameters were TR =300 ms and TE =20 ms. Sagittal images were collected before administration of the contrast agent, and after administration, five more images were collected. Operator defined region-of-interest (ROI) measurements were made upon the organs under study for the pre- and postcontrast images. ROI measurements were recorded for the liver and kidney. For the liver, three slices were studied and for the kidneys, a single slice through each kidney was studied.
Percent enhancement was calculated by the following equation: [formula]
Female Fischer 334 rats were used in the imaging experiments. The subjects were weighed and anesthetized with 65 mg/kg pentobarbital. The preinjection pulse sequence was performed, then the contrast agent was administered. The concentration used was 0.10 mmollkg with an injection volume of 0.5 mL used throughout, administered over a time range of approximately three minutes. […]

Compound: O=C([O-])CN(CCN(CC(=O)[O-])CC(=O)O)CCN(CC(=O)[O-])CC(=O)O.[Gd+3] [Gd-DTPA, gadolinium ion chelated with the ligand diethylenetriaminepentaacetic acid]
- Percentage enhancement, large, necrotic tumor, 1 hr ([1]; 100 μmol agent/kg bw iv, 1 hr post contrast): +52 ± 14%
- Percentage enhancement, large, necrotic tumor, 24 hr ([1]; 100 μmol agent/kg bw iv, 24 hr post contrast): -11 ± 8%
- enhancement of necrotic tumor tissue ([1]; large (almost completely necrotic) tumor, 24 hr post contrast): no such enhancement was found with Gd-DTPA; also recorded: no significant enhancement of tumor
- differentiation of tumor from surrounding muscle ([1]; single iv application): straightforward
- tumor enhancement, 3 hr ([1]; single iv application, 3 hr post contrast): significant tumor enhancement
- Percentage enhancement, muscle (large, necrotic tumor), 1 hr (Muscle; 1 hr post contrast): +10 ± 6%
- Percentage enhancement, muscle (large, necrotic tumor), 24 hr (Muscle; 24 hr post contrast): -4 ± 2%

Compound: [Gd] [gadolinium]
- LD50 (mice): 1.4 mmol/kg

Compound: [Mn+2] [manganese]
- LD50 (mice): 1.5 mmol/kg

Compound: Fe(III) tris(tironate)
- liver enhancement (liver and kidney [2]): ≤ 15%
- liver-specificity (liver and kidney [3]): does not show this tissue specificity

Compound: iron
- LD50 (mice): 1.6 mmol/kg
